Data reported in patent US20260262643A1, “HERBICIDAL BENZOXAZINES” (FMC CORPORATION, priority 2022, published 2026).

What was measured:
rice = experiment: Test D flooded paddy test; assay type: in vivo, Oryza sativa; conditions: 250 g ai/ha, applied to paddy water, visual rating after 13 to 14 days, scale 0 to 100 (0 no effect, 100 complete control)
Outline: (§1)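 At the 2-leaf stage, floodwater 3 cm deep received the test compound; that depth persisted throughout. Plants scored visually 13 to 14 days on, 0 (no effect) to 100 (complete control), dash indicating no result.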

oat, wild = experiment: Test C postemergence; assay type: in vivo, Avena fatua; conditions: postemergence, 10 days
Outline: (§2)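 Test material, in non-phytotoxic solvent with surfactant, was sprayed on the soil directly after seeding (preemergence) or on young plants of 2–10 cm with one to two leaves (postemergence). Greenhouse, 10 days; 0–100 visual control scale.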

ryegrass, Italian [1] = experiment: Test C preemergence; assay type: in vivo, Lolium multiflorum; conditions: preemergence, 0 to 100 scale (0 no effect, 100 complete control)
Outline: as §2

pigweed, palmer [2] = experiment: Test C postemergence; assay type: in vivo, Amaranthus palmeri; conditions: postemergence, 10 days
Outline: as §2

ducksalad = experiment: Test D flooded paddy test; assay type: in vivo, Heteranthera limosa; conditions: 250 g ai/ha, applied to paddy water, visual rating after 13 to 14 days, scale 0 to 100 (0 no effect, 100 complete control)
Outline: as §1

galium = experiment: Test C postemergence; assay type: in vivo, Galium aparine; conditions: postemergence, 10 days
Outline: as §2

kochia [3] = experiment: Test C postemergence; assay type: in vivo, Bassia scoparia; conditions: postemergence, 10 days
Outline: as §2

corn [4] = experiment: Test C postemergence; assay type: in vivo, Zea mays; conditions: postemergence, 10 days
Outline: as §2

soybean [5] = experiment: Test C preemergence; assay type: in vivo, Glycine max; conditions: preemergence, 0 to 100 scale (0 no effect, 100 complete control)
Outline: as §2

horseweed = experiment: Test C postemergence; assay type: in vivo, Erigeron canadensis; conditions: postemergence, 10 days
Outline: as §2

barnyardgrass [6] = experiment: Test D flooded paddy test; assay type: in vivo, Echinochloa crus-galli; conditions: 250 g ai/ha, applied to paddy water, visual rating after 13 to 14 days, scale 0 to 100 (0 no effect, 100 complete control)
Outline: as §1

wheat [7] = experiment: Test C postemergence; assay type: in vivo, Triticum aestivum; conditions: postemergence, 10 days
Outline: as §2

wheat [8] = experiment: Test C preemergence; assay type: in vivo, Triticum aestivum; conditions: preemergence, 0 to 100 scale (0 no effect, 100 complete control)
Outline: as §2

ryegrass, Italian [9] = experiment: Test C postemergence; assay type: in vivo, Lolium multiflorum; conditions: postemergence, 10 days
Outline: as §2

blackgrass [10] = experiment: Test C postemergence; assay type: in vivo, Alopecurus myosuroides; conditions: postemergence, 10 days
Outline: as §2

green foxtail [11] = experiment: Test C preemergence; assay type: in vivo, Setaria viridis; conditions: preemergence, 0 to 100 scale (0 no effect, 100 complete control)
Outline: as §2

ragweed [12] = experiment: Test C preemergence; assay type: in vivo, Ambrosia artemisiifolia; conditions: preemergence, 0 to 100 scale (0 no effect, 100 complete control)
Outline: as §2

barnyardgrass [13] = experiment: Test C postemergence; assay type: in vivo, Echinochloa crusgalli; conditions: postemergence, 10 days
Outline: as §2

pigweed, palmer [14] = experiment: Test C preemergence; assay type: in vivo, Amaranthus palmeri; conditions: preemergence, 0 to 100 scale (0 no effect, 100 complete control)
Outline: as §2

sedge, umbrella = experiment: Test D flooded paddy test; assay type: in vivo, Cyperus difformis; conditions: 250 g ai/ha, applied to paddy water, visual rating after 13 to 14 days, scale 0 to 100 (0 no effect, 100 complete control)
Outline: as §1

soybean [15] = experiment: Test C postemergence; assay type: in vivo, Glycine max; conditions: postemergence, 10 days
Outline: as §2

barnyardgrass [16] = experiment: Test C preemergence; assay type: in vivo, Echinochloa crusgalli; conditions: preemergence, 0 to 100 scale (0 no effect, 100 complete control)
Outline: as §2

corn [17] = experiment: Test C preemergence; assay type: in vivo, Zea mays; conditions: preemergence, 0 to 100 scale (0 no effect, 100 complete control)
Outline: as §2

blackgrass [18] = experiment: Test C preemergence; assay type: in vivo, Alopecurus myosuroides; conditions: preemergence, 0 to 100 scale (0 no effect, 100 complete control)
Outline: as §2

green foxtail [19] = experiment: Test C postemergence; assay type: in vivo, Setaria viridis; conditions: postemergence, 10 days
Outline: as §2

kochia [20] = experiment: Test C preemergence; assay type: in vivo, Bassia scoparia; conditions: preemergence, 0 to 100 scale (0 no effect, 100 complete control)
Outline: as §2

ragweed [21] = experiment: Test C postemergence; assay type: in vivo, Ambrosia artemisiifolia; conditions: postemergence, 10 days
Outline: as §2

[22] = 125 g ai/ha, 0 to 100 scale, 0 no effect, 100 complete control
[23] = 500 g ai/ha, 0 to 100 scale (0 no effect, 100 complete control)

With CCOCc1ncn(-c2ccc(C)c(C(=O)N3C[C@H](C)Oc4c(Cl)cccc43)c2)n1 [Compound 294] the “Plant response rating, Rice (Flood)” value (rice) was 0, the “Plant response rating, Oat, Wild” value (oat, wild; [22]) was 10 and the “Plant response rating, Oat, Wild” value (oat, wild; [23]) was 10. For the same molecule, the “Ryegrass, Italian plant response rating” value (ryegrass, Italian [1]; 500 g ai/ha) was 100, the “Ryegrass, Italian plant response rating” value (ryegrass, Italian [1]; Test C, 125 g ai/ha) was 90 and the “Plant response rating, Pigweed, Palmer” value (pigweed, palmer [2]; [22]) was 40. For the same molecule, the “Plant response rating, Pigweed, Palmer” value (pigweed, palmer [2]; [23]) was 60, the “Plant response rating, Ducksalad (Flood)” value (ducksalad) was 0 and the “Plant response rating, Galium” value (galium; [22]) was 100. For the same molecule, the “Plant response rating, Galium” value (galium; [23]) was 90, the “Plant response rating, Kochia” value (kochia [3]; [22]) was 60 and the “Plant response rating, Kochia” value (kochia [3]; [23]) was 60. The “Plant response rating, Corn” value (corn [4]; [22]) was 30, the “Plant response rating, Corn” value (corn [4]; [23]) was 90 and the “Soybean plant response rating” value (soybean [5]; 500 g ai/ha) was 90. The “Soybean plant response rating” value (soybean [5]; Test C, 125 g ai/ha) was 20, the “Plant response rating, Horseweed” value (horseweed; [22]) was 30 and the “Plant response rating, Horseweed” value (horseweed; [23]) was 70. For the same molecule, the “Plant response rating, Barnyardgrass (Flood)” value (barnyardgrass [6]) was 0, the “Plant response rating, Wheat” value (wheat [7]; [22]) was 10 and the “Plant response rating, Wheat” value (wheat [7]; [23]) was 40. For the same molecule, the “Wheat plant response rating” value (wheat [8]; 500 g ai/ha) was 20, the “Wheat plant response rating” value (wheat [8]; Test C, 125 g ai/ha) was 0 and the “Plant response rating, Ryegrass, Italian” value (ryegrass, Italian [9]; [22]) was 40. For the same molecule, the “Plant response rating, Ryegrass, Italian” value (ryegrass, Italian [9]; [23]) was 90, the “Plant response rating, Blackgrass” value (blackgrass [10]; [22]) was 30 and the “Plant response rating, Blackgrass” value (blackgrass [10]; [23]) was 80. For the same molecule, the “Foxtail, Green plant response rating” value (green foxtail [11]; 500 g ai/ha) was 100, the “Foxtail, Green plant response rating” value (green foxtail [11]; Test C, 125 g ai/ha) was 90 and the “Ragweed plant response rating” value (ragweed [12]; 500 g ai/ha) was 0. For the same molecule, the “Ragweed plant response rating” value (ragweed [12]; Test C, 125 g ai/ha) was 0, the “Plant response rating, Barnyardgrass” value (barnyardgrass [13]; [22]) was 10 and the “Plant response rating, Barnyardgrass” value (barnyardgrass [13]; [23]) was 50. The “Pigweed, Palmer plant response rating” value (pigweed, palmer [14]; 500 g ai/ha) was 90, the “Pigweed, Palmer plant response rating” value (pigweed, palmer [14]; Test C, 125 g ai/ha) was 60 and the “Plant response rating, Sedge, Umbrella (Flood)” value (sedge, umbrella) was 0. The “Plant response rating, Soybean” value (soybean [15]; [22]) was 90, the “Plant response rating, Soybean” value (soybean [15]; [23]) was 100 and the “Barnyardgrass plant response rating” value (barnyardgrass [16]; 500 g ai/ha) was 100. For the same molecule, the “Barnyardgrass plant response rating” value (barnyardgrass [16]; Test C, 125 g ai/ha) was 40, the “Corn plant response rating” value (corn [17]; 500 g ai/ha) was 50 and the “Corn plant response rating” value (corn [17]; Test C, 125 g ai/ha) was 50. The “Blackgrass plant response rating” value (blackgrass [18]; 500 g ai/ha) was 90, the “Blackgrass plant response rating” value (blackgrass [18]; Test C, 125 g ai/ha) was 70 and the “Plant response rating, Foxtail, Green” value (green foxtail [19]; [22]) was 10. The “Plant response rating, Foxtail, Green” value (green foxtail [19]; [23]) was 70, the “Kochia plant response rating” value (kochia [20]; 500 g ai/ha) was 80 and the “Kochia plant response rating” value (kochia [20]; Test C, 125 g ai/ha) was 20. For the same molecule, the “Plant response rating, Ragweed” value (ragweed [21]; [22]) was 50 and the “Plant response rating, Ragweed” value (ragweed [21]; [23]) was 70.
